The values below come from US20240207283A1, “WATER SOLUBLE COMPLEX COMPOSITIONS AND METHODS THEREOF” (VETERINARY PHARMACY CORPORATION, priority 2021, published 2024).

The structures appear in SMILES notation.

For data set [1] the following is noted: generally known; cited from earlier work.
The conditions of data set [2]: hydrotrope niacinamide.

As to `Cc1cnc(NC(=O)C2=C(O)c3ccccc3S(=O)(=O)N2C)s1` [meloxicam], in data set [1], the solubility in methanol result is given as “slightly soluble in methanol” and the solubility in water entry is “insoluble in water”. As to `CN1C(C(=O)Nc2ccccn2)=C(O)c2ccccc2S1(=O)=O` [piroxicam], in data set [2], the “pH above which the clear solution begins to form” value was “above 9.0”.
